Results taken from patent US5624923A, “Tricyclic diazepine vasopressin antagonists and oxytocin antagonists” (priority 1995, dated 1997).
pIC50: −log10 of the molar value.

Experiments:
[1] = target: T1, Rat Kidney Medullary V2 Receptors (Rattus norvegicus, UniProt Q00788); test: Binding Assay to Rat Kidney Medullary V2 Receptors; conditions: rat kidney medulla membranes; read-out: V2 IC50
T1 construct: Medullary tissues from rat kidneys are dissected out; from tissue; host or cells: rat kidney medulla membranes
T1 sequence (Q00788 whole entry): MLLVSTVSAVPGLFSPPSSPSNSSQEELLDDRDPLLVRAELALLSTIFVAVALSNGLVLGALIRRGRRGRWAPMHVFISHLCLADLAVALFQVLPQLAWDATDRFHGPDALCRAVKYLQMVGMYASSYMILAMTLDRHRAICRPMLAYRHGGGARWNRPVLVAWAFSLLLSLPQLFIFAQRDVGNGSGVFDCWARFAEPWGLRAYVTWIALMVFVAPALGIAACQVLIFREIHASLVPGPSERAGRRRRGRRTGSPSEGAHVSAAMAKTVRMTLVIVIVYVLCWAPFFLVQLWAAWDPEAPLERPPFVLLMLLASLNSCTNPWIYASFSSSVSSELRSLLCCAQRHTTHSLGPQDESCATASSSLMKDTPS
Summary of the method: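 IC50 derived from competition curves; bound tritium counted by liquid scintillation after filtration. Rat medullary kidney membranes (Tris-HCl pH 7.4, BSA, PMSF) were incubated 120 min to equilibrium with radioligand and test compound (added in 50% DMSO). Nonspecific binding: 1.0 μM unlabeled ligand.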

oxytocin receptors = target: T2, oxytocin receptors (Rattus norvegicus, UniProt P70536); test: Oxytocin Receptor Binding; conditions: for pIC50: 1.0 nM [3H]oxytocin; for inhibition at 10 µM: [3H]oxytocin
T2 construct: The uteri are dissected out, cleaned of fat and connective tissues; from tissue; host or cells: uterus of DES-treated female Sprague-Dawley rats
T2 sequence (P70536 1-388): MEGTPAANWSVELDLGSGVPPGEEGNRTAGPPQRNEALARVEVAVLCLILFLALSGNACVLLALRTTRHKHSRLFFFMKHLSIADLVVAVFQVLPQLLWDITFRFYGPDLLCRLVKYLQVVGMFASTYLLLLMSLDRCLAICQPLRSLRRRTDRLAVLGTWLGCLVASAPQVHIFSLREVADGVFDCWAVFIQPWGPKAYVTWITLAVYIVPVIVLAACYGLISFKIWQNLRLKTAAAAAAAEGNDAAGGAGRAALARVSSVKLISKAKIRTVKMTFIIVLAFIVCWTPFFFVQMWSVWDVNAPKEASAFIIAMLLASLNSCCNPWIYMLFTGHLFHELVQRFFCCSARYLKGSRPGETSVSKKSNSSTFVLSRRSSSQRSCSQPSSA
Summary of the method: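 IC50 is the concentration displacing 50% of 1.0 nM [3H]OT, incubated 60 min at 22 °C in pH 7.4 Tris/MgCl2 buffer plus protease inhibitors, then filtered. Receptor source: uterine membranes from rats given 0.3 mg/kg DES i.m. 18 h earlier. 1.0 uM cold OT defined non-specific binding.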

Vasopressin V1 = Vasopressin V1 Antagonist Activity in Conscious Rats (vasopressin vasopressor response); format: in vivo, rat; set-up: Average Change: unit not given here; conditions: for % Inhibition / Average Change: SHR
Summary of the method: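 Conscious rats are restrained supine, and under local 2% procaine a PE 10/20 cannula is passed through the ventral caudal tail artery into the lower abdominal aorta. The caudal vein is cannulated for intravenous dosing. Blood pressure is recorded with a Statham P23Db transducer, and vasopressin injections are repeated after compound dosing. Percent antagonism is calculated against the pre-drug vasopressor response taken as 100%.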

[2] = 10 mg/kg i.v., VAS 0.01 i.u./kg, 30 min
[3] = 10 mg/kg i.v., VAS 0.01 i.u./kg, 60 min
[4] = 10 mg/kg i.v., VAS 0.01 i.u./kg, 90 min
[5] = 10 mg/kg i.v., VAS 0.01 i.u./kg, 120 min
[6] = 10 mg/kg i.v., VAS 0.01 i.u./kg, 180 min
[7] = 10 mg/kg i.v., VAS 0.01 i.u./kg, 240 min
[8] = 10 mg/kg i.v., VAS 0.01 i.u./kg, 300 min
[9] = 10 mg/kg i.v., VAS 0.02 i.u./kg, 30 min
[10] = 10 mg/kg i.v., VAS 0.02 i.u./kg, 60 min
[11] = 10 mg/kg i.v., VAS 0.02 i.u./kg, 90 min
[12] = 10 mg/kg i.v., VAS 0.02 i.u./kg, 120 min
[13] = 10 mg/kg i.v., VAS 0.02 i.u./kg, 180 min
[14] = 10 mg/kg i.v., VAS 0.02 i.u./kg, 240 min
[15] = 10 mg/kg i.v., VAS 0.02 i.u./kg, 300 min

| SMILES | pIC50 [1] | pIC50 (oxytocin receptors) | inhibition at 10 µM (oxytocin receptors) [%] | % Inhibition (Vasopressin V1; [2]) [%] | Average Change (Vasopressin V1; [2]) | % Inhibition (Vasopressin V1; [3]) [%] | Average Change (Vasopressin V1; [3]) | % Inhibition (Vasopressin V1; [4]) [%] | Average Change (Vasopressin V1; [4]) | % Inhibition (Vasopressin V1; [5]) [%] | Average Change (Vasopressin V1; [5]) | % Inhibition (Vasopressin V1; [6]) [%] | Average Change (Vasopressin V1; [6]) | % Inhibition (Vasopressin V1; [7]) [%] | Average Change (Vasopressin V1; [7]) | % Inhibition (Vasopressin V1; [8]) [%] | Average Change (Vasopressin V1; [8]) | % Inhibition (Vasopressin V1; [9]) [%] | Average Change (Vasopressin V1; [9]) | % Inhibition (Vasopressin V1; [10]) [%] | other results |
| --- | --- | --- | --- | --- | --- | --- | --- | --- | --- | --- | --- | --- | --- | --- | --- | --- | --- | --- | --- | --- | --- |
| CSc1ccccc1C(=O)Nc1ccc(C(=O)N2Cc3cccn3Cc3ccccc32)cc1 [Example 85, N-[4-(5H-Pyrrolo[2,1-c][1,4]benzodiazepin-10(11H)-ylcarbonyl)phenyl]-2-(methylthio)benzamide] | 7.89 | 6.34 | 98 | 83 | 4.5 | 74 | 7 | 64 | 9.5 | 66 | 9 | 42 | 15.5 | 55 | 12 | 5 | 12 | 75 | 9 | 73 | Average Change (Vasopressin V1; [10]): 9.5; % Inhibition (Vasopressin V1; [11]): 79%; Average Change (Vasopressin V1; [11]): 7.5; % Inhibition (Vasopressin V1; [12]): 82%; Average Change (Vasopressin V1; [12]): 6.5; % Inhibition (Vasopressin V1; [13]): 45%; Average Change (Vasopressin V1; [13]): 19.5; % Inhibition (Vasopressin V1; [14]): 49%; Average Change (Vasopressin V1; [14]): 18; % Inhibition (Vasopressin V1; [15]): 49%; Average Change (Vasopressin V1; [15]): 18 |
| Cc1ccccc1CC(=O)Nc1ccc(C(=O)N2Cc3cccn3Cc3ccccc32)cc1 [Example 93, N-[4(5H-Pyrrolo[2,1-c][1,4]benzodiazepin-10(11H)-ylcarbonyl)phenyl]-2-methylbenzeneacetamide] | 9.15 | 7.22 | 87 | 96 | 2 | 94 | 3 | 90 | 5 | 88 | 6 | 73 | 13.5 | 74 | 13 | 76 | 12 | 94 | 4.5 | 92 | Average Change (Vasopressin V1; [10]): 5.5; % Inhibition (Vasopressin V1; [11]): 90%; Average Change (Vasopressin V1; [11]): 7; % Inhibition (Vasopressin V1; [12]): 90%; Average Change (Vasopressin V1; [12]): 7; % Inhibition (Vasopressin V1; [13]): 78%; Average Change (Vasopressin V1; [13]): 15.5; % Inhibition (Vasopressin V1; [14]): 76%; Average Change (Vasopressin V1; [14]): 17; % Inhibition (Vasopressin V1; [15]): 74%; Average Change (Vasopressin V1; [15]): 18.5 |
| Cc1ccccc1C(=O)Nc1ccc(C(=O)N2Cc3ccnn3Cc3ccccc32)cc1 [Example 210, N-[4-(4H-Pyrazolo[5,1-c][1,4]benzodiazepin-5(10H)-ylcarbonyl)phenyl]-2-methylbenzamide] | 7.80 | 5.40 | 64 | – | – | – | – | – | – | – | – | – | – | – | – | – | – | – | – | – | Max. % Inhibition (Vasopressin V1; 10 mg/kg i.v.): 78%; Time (of max. % inhibition) (Vasopressin V1; 10 mg/kg i.v.): 90 min |
| O=C(Nc1ccc(C(=O)N2Cc3ccnn3Cc3ccccc32)cc1)c1ccc(Cl)cc1Cl [Example 217, N-[4-(4H-Pyrazolo[5,1-c][1,4]benzo-diazepin-5(10H)-ylcarbonyl)phenyl]-2,4-dichlorobenzamide] | 8.30 | 5.92 | 87 | – | – | – | – | – | – | – | – | – | – | – | – | – | – | – | – | – | Max. % Inhibition (Vasopressin V1; 30 mg/kg i.v.): 57%; Time (of max. % inhibition) (Vasopressin V1; 30 mg/kg i.v.): 90 min |
